Measurements: patent publication US20080003305A1, “PROCESS AND COMPOSITIONS FOR THE DISINFECTION OF WATERS” (BROMINE COMPOUNDS LIMITED, priority 1991, published 2008)

Assays:
[1] = Residue as Cl2 in water from a citrus juice evaporator; format: physicochemical; conditions: 30 ppm as Cl2
Description: (§1) Kinetics of Kill of Various Mixtures of Ammonium Salts Mixed with NaOCl in Water from a Citrus Juice Evaporator
(§2) Demand: Higher than 30 ppm out of 30 ppm of Cl2 during 10 minutes.
(§3) Stock concentration of NH4X+NaOCl: 0.1% as Cl2

[2] = tested on: Pseudomonas sp.; assay: Efficacy in buffer at pH-7.5 against Pseudomonas sp.; format: cell-based; conditions: buffer pH 7.5, 1 ppm as Cl2
Description: Efficacy in Buffer at pH-7.5 against Pseudomonas sp.
Chlorine demand: 0.1 ppm out of 1 ppm within 20 minutes
NH4Br+NaOCl: stock concentration: 1000 ppm as Cl2
Preparation of stock solution: NH4Br was dissolved in de-ionized water (2761 ppm). NaOCl (2000 ppm as Cl2) was quickly added dropwise to the ammonium bromide solution while stirring the mixture. The stock solution was used immediately.

[3] = tested on: total aerobic viable counts; assay: Efficacy of oxidizing biocides in water taken from a paper mill (thick stock of pulp slurry); format: cell-based; conditions: 15 mg/l as Cl2
Description: Efficacy of Oxidizing Biocides in Water Taken from a Paper Mill (Thick Stock of Pulp Slurry)
Microorganisms were incubated at 37° C. (total aerobic viable counts).
Concentration of stock solution: 0.1% as Cl2.

[4] = tested on: anaer. MOs; assay: Efficacy in domestic waste containing a high concentration of amines: anaerobic MOs; format: cell-based; conditions: 60 ppm; contact time 10 minutes; N as NH3 50mg/l; pH 6.10
Description: (§4) Efficacy of a Series of Biocides in Domestic Waste Containing a High Concentration of Amines
(§5) Incubation temperature: 27° C.
(§6) Stock concentration: 0.2%

[5] = tested on: total count; assay: Dependence of efficacy of NH4Br+NaOCl on the concentration of stock solution, industrial waste water; format: cell-based; conditions: no pre-mixed stock, 4 ppm as Cl2
Description: Dependence of Efficacy of Mixtures of NH4Br+NaOCl on the Concentrations of Stock Solution
Work was carried out in industrial waste water.
Stock concentrates were prepared in buffer at pH 7.00.
Biocidal dose: 4 ppm as Cl2.

[6] = Residue as Cl2 in domestic waste; format: physicochemical; conditions: 20 ppm as Cl2, contact time 10 minutes
Description: (§7) Efficacy of Oxidizing Biocides in Domestic Waste
(§8) Non-treated domestic waste roughly filtered; contact time: 10 minutes.
(§9) Stock concentration: 0.5% as Cl2.

[7] = Residue as Cl2 in domestic waste containing a high concentration of amines; format: physicochemical; conditions: 60 ppm
Description: as §4, §5, §6

[8] = tested on: aerob. MOs; assay: Efficacy in domestic waste containing a high concentration of amines: aerobic MOs; format: cell-based; conditions: 60 ppm; contact time 10 minutes; N as NH3 50mg/l; pH 6.10
Description: as §4, §5, §6

[9] = tested on: total count; assay: Efficacy of oxidizing biocides in domestic waste: total count; format: cell-based; conditions: 20 ppm as Cl2; contact time 10 minutes
Description: as §7, §8, §9

[10] = tested on: Fecal coli; assay: Efficacy of oxidizing biocides in domestic waste: fecal coli; format: cell-based; conditions: 20 ppm as Cl2; contact time 10 minutes
Description: as §7, §8, §9

[11] = tested on: fouling of size press filters; assay: Field experiment, starch sizing mixture (paper mill); conditions: NaOCl (10% as Cl2) fed every 8 hours, 30 liters per portion
Description: • Paper mill, starch sizing • Contained volume: 20 m^3 • Flow rate: 8.33 m^3/h. (6% starch in H2O), • pH about 8.0 • Temperature: 50° C.-70° C.
Sizing mixture is recirculated in a size press through a filter (80 microns). Circulation rate: 6 m^3/h. The sizing mixture had been previously treated with NaOCl (10% as Cl2), which was fed every 8 hours (30 liters per portion).
Use of NaOCl was replaced by the use of a mixture of NH4Br+NaOCl (stock concentration 0.5% as Cl2).

[12] = tested on: total count; assay: Pre-mixing versus in situ addition of ammonium salts and NaOCl, water from a corn-processing plant; format: cell-based; conditions: 12 ppm, stock formed in water
Description: Pre-Mixing Versus in Situ Addition of Ammonium Salts and NaOCl
Water from a corn-processing plant; high demand for Cl2,
NH4Cl+NaOCl: stock concentration: 1%
NH4Br+NaOCl: stock concentration: 0.5%
Stock solutions were formed at pH 14.0; 7.0, 4.0 and in water.
For in situ addition: both NH4X and NaOCl were dissolved at the appropriate pH.

[13] = tested on: MOs in starch sizing mixture; assay: Efficacy of oxidizing and non-oxidizing biocides in a starch sizing mixture (paper industry); format: cell-based; conditions: 30 ppm active ingredient, 60° C.; for Surviving MOs after time (hours): 4: 4 hours; for Surviving MOs after time (hours): 28: 28 hours; for Surviving MOs after time (hours): 48: 48 hours; for Surviving MOs after time (hours): 72: 72 hours
Description: Efficacy of Oxidizing and Non-Oxidizing Biocides is a Starch Sizing Mixture (Paper Industry)
Efficacy was measured at 60° C.
NH4Br+NaOCl: stock concentration 0.1%.
Dosage: 30 ppm active ingredient.
Incubation temperature 60° C.

[14] = tested on: total aerobic MOs; assay: Kinetics of kill in water from a citrus juice evaporator: total aerobic; format: cell-based; conditions: 30 ppm as Cl2
Description: as §1, §2, §3

[15] = tested on: total anaerobic MOs; assay: Kinetics of kill in water from a citrus juice evaporator: total anaerobic; format: cell-based; conditions: 30 ppm as Cl2
Description: as §1, §2, §3

[16] = tested on: bacillus mycoides; assay: Efficacy of ammonium bromide at various pHs; format: cell-based; conditions: 2 ppm as Cl2
Description: Efficacy of Ammonium Bromide at Various pHs
Examined MO: bacillus mycoides
NH4Br+NaOCl: molar ratio 1:1; stock concentration: 0.5%;
NH4Br+NaOCl was either pre-mixed or added in situ to the buffer.
Demand: 1.8 ppm out of 2 ppm of Cl2 within 60 minutes.

[17] = tested on: survivors in water taken from a citrus juice evaporator; assay: Efficacy in water taken from a citrus juice evaporator; comparison to non-oxidizing biocides; format: cell-based; conditions: dose 30 mg/l
Description: Efficacy of NH4Cl+NaOCl in Water Taken from a Citrus Juice Evaporator; Comparison to Non-Oxidizing Biocides
Water demand: higher than 30 ppm of Cl2 (out of 30 ppm Cl2) within 60 minutes.
Concentration of stock solution (NH4Cl+NaOCl): 1000 ppm.
Algicol II is a quaternary ammonium salt.

## [Na+].[O-]Cl [NaOCl, sodium hypochlorite]
[1]; free, 10 minutes
  residue as Cl2 free after time (minutes): 10: 0 (0)
[1]; free, 20 minutes
  residue as Cl2 free after time (minutes): 20: 0 (0)
[1]; free, 60 minutes
  residue as Cl2 free after time (minutes): 60: 0 (0)
[1]; total, 10 minutes
  residue as Cl2 (total) after time (minutes): 10: 0 (0)
[1]; total, 20 minutes
  residue as Cl2 (total) after time (minutes): 20: 0 (0)
[1]; total, 60 minutes
  residue as Cl2 (total) after time (minutes): 60: 0 (0)
[2]; 1 minute
  Survivors after time (minutes): 1: 4 × 10^6 cfu/ml
[2]; 5 minutes
  Survivors after time (minutes): 5: 1 × 10^5 cfu/ml
[2]; 10 minutes
  Survivors after time (minutes): 10: 4 × 10^2 cfu/ml
[2]; 20 minutes
  Survivors after time (minutes): 20: 0 cfu/ml
[3]; 30 minutes
  Viable counts after time (minutes): 30: 6 × 10^3 cfu/ml
[3]; 70 minutes
  Viable counts after time (minutes): 70: 2 × 10^3 cfu/ml
[3]; 25 hours
  Viable counts after time: 25 hours: 1 × 10^5 cfu/ml
[4]
  Surviving MOs after 10 minutes anaer.: 3 × 10^3 cfu/ml
[5]; 10 minutes
  Survivors total count after time (minutes): 10: 9 × 10^5 cfu/ml
[5]; 180 minutes
  Survivors total count after time (minutes): 180: 7 × 10^5 cfu/ml
[6]; free
  residue as Cl2 free: 0 (0) ppm
[6]; total
  residue as Cl2 (total): 0 (0) ppm
[7]; free
  Residue free as Cl2 after 10 minutes: 0.2
[7]; total
  Residue (total) as Cl2 after 10 minutes: 1.5
[8]
  Surviving MOs after 10 minutes aerob.: 9 × 10^2 cfu/ml
[9]
  total count: 6 × 10^6 cfu/ml
[10]
  Fecal coli: 5 × 10^5 cfu/ml
[11]
  frequency of filter washing: filters had to be washed once every two hours
[12]; 60 minutes
  Survivors (total count) H2O, 60 minutes: 2 × 10^6 cfu/ml
[12]; 180 minutes
  Survivors (total count) H2O, 180 minutes: 2 × 10^6 cfu/ml
[13]
  Surviving MOs after time (hours): 4: 4 × 10^3 cfu/ml
  Surviving MOs after time (hours): 28: 2 × 10^6 cfu/ml
  Surviving MOs after time (hours): 48: 3 × 10^6 cfu/ml
  Surviving MOs after time (hours): 72: 3 × 10^6 cfu/ml
[14]; 10 minutes
  Surviving MOs after time (minutes); total aerobic: 10: 2 × 10^5 cfu/ml
[14]; 20 minutes
  Surviving MOs after time (minutes); total aerobic: 20: 2 × 10^7 cfu/ml
[14]; 60 minutes
  Surviving MOs after time (minutes); total aerobic: 60: 1 × 10^7 cfu/ml
[15]; 10 minutes
  Surviving MOs after time (minutes); (total anaerobic): 10: 8 × 10^4 cfu/ml
[15]; 20 minutes
  Surviving MOs after time (minutes); (total anaerobic): 20: 3 × 10^6 cfu/ml
[16]; pH 7.0, 60 m
  Survivors pH-7.0 60 m: 1 × 10^5 cfu/ml
[16]; pH 7.0, 180 m
  Survivors pH-7.0 180 m: 1 × 10^5 cfu/ml
[16]; pH 7.0, 24 h
  Survivors pH-7.0 24 h: 1 × 10^5 cfu/ml
[16]; pH 8.0, 60 m
  Survivors pH-8.0 60 m: 3 × 10^5 cfu/ml
[16]; pH 8.0, 180 m
  Survivors pH-8.0 180 m: 1 × 10^5 cfu/ml
[16]; pH 8.0, 24 h
  Survivors pH-8.0 24 h: 1 × 10^5 cfu/ml
[16]; pH 9.0, 60 m
  Survivors pH-9.0 60 m: 1 × 10^5 cfu/ml
[16]; pH 9.0, 180 m
  Survivors pH-9.0 180 m: 1 × 10^5 cfu/ml
[16]; pH 9.0, 24 h
  Survivors pH-9.0 24 h: 1 × 10^5 cfu/ml

## N#CSCSC#N [MBT]
[13]
  Surviving MOs after time (hours): 4: 9 × 10^4 cfu/ml
  Surviving MOs after time (hours): 28: 4 × 10^4 cfu/ml
  Surviving MOs after time (hours): 48: 2 × 10^4 cfu/ml
  Surviving MOs after time (hours): 72: 2 × 10^4 cfu/ml
[17]; 1 hour
  Survivors after time (hours): 1: 1 × 10^6 cfu/ml
[17]; 24 hours
  Survivors after time (hours): 24: 1 × 10^3 cfu/ml
[17]; 7 days
  Survivors after time: 7 days: 8 × 10^2 cfu/ml
